Activity data for 1 molecule are collected here from ChEMBL document CHEMBL4130638, “Discovery of the Polyamine Conjugate with Benzo[ cd]indol-2(1 H)-one as a Lysosome-Targeted Antimetastatic Agent” (J Med Chem, 2018).

The structures appear in SMILES notation. The source made the active and inactive calls. The calls are words filed in the database; no cut-off is given here.

For assay [1], the system named is HCT-116. In words: Induction of apoptosis in human HCT116 cells assessed as live cells at 10 uM after 24 hrs in presence of autophagy inhibitor 3-MA by annexin V-FITC/propidium iodide staining based flow cytometry (reference value: 89.97%). The format is functional. In general terms: Flow cytometry measures light scatter and fluorescence of single cells or particles in a stream.

Assay [2] concerns HCT-116. Description: Induction of apoptosis in human HCT116 cells assessed as early apoptotic cells at 10 uM after 24 hrs in presence of autophagy inhibitor 3-MA by annexin V-FITC/propidium iodide staining based flow cytometry (reference value: 4.1%). It counts as functional.
Assay [3] relates to HCT-116. In words: Downregulation of Akt protein expression in human HCT116 cells up to 10 uM after 24 hrs in presence of autophagy inhibitor 3-MA by Western blot method. The format is functional, cell-based. (In general: In western blotting, separated proteins are transferred to a membrane and probed.)
The test system of assay [4] is HCT-116. Description: Downregulation of cathepsin-D protein expression in human HCT116 cells after 24 hrs by Western blot method. The format is functional, cell-based.
Assay [5] relates to HCT-116. Description: Upregulation of LAMP2 protein expression in human HCT116 cells at 10 uM after 24 hrs by Western blot method. It counts as functional, cell-based.

Turning to `Cl.Cl.Cl.NCCCCNCCCCNCCCCN1C(=O)c2cccc3cccc1c23`, the Activity in the assay with HCT-116 [1] was 56.54%; with HCT-116 [2] it was 17.3%; with HCT-116 [4], “Dose-dependent effect”. Besides, the outcome with HCT-116 [3] was inactive. Further, the result in the assay with HCT-116 [5] was Active.
